From patent US11427552B2, “Heterocyclic compounds useful in the treatment of disease” (EPIGEN BIOSCIENCES, INC., priority 2013, dated 2022) come the findings set out here.

In this assay the target is T1, LPA1R (Homo sapiens, UniProt Q92633).
T1 construct: host or cells: LPA1R expressing cells (Millipore, GPCR Profiler)
T1 sequence (Q92633 whole entry): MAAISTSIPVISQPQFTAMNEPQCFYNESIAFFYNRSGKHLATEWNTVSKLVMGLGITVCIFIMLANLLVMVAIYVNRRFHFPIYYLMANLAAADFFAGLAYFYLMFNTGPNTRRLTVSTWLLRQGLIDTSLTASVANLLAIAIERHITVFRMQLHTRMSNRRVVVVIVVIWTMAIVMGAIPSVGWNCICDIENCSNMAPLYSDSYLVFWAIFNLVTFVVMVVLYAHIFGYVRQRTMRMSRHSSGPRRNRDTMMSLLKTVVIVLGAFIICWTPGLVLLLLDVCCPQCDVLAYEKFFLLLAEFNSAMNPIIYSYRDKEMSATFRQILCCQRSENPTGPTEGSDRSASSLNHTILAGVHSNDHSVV
The experiment in a line: LPA1R Ca2+ flux functional assay (antagonist mode, FLIPR). Type of assay: cell-based. The note with it: inhibition of LPA-stimulated Ca2+ flux, LPA at EC80, LPA1R expressing cells (Millipore); read-out: LPA1 R Antagonist Activity. On the procedure:
Inhibition of LPA-stimulated Ca^2+ flux was used to assess compound potency using FLIPR technology in a 96 well plate format. The assay buffer used was a modified Hanks Balanced Salt Solution (HBSS) where HBSS was supplemented to contain 20 mM HEPES and 2.5 mM Probenecid at pH7.4 (Millipore, GPCR Profiler®). LPA1R expressing cells (Millipore) were plated and prepared 24 hours prior to assay of test articles. Ca^2+ ion flux was assessed from fluorescence of a Fluo-based No Wash Ca^2+ dye. Antagonist data are generated from plates with LPA concentrations sufficient to generate 80% efficacy [EC80]. Percentage inhibition was calculated from a reduction of efficacy according to concentration of compounds of Formula I-VI. For dose responses the inhibition data was used to calculate compound IC50. The agonist assay was conducted on a FLIPR^TETRA instrument where the test compound(s), vehicle controls, and reference agonist were added to the assay plate after a fluorescence baseline was established. The agonist assay was a total of 180 seconds and was used to assess each compound's ability to activate each GPCR assayed. Upon completion of the agonist assay, the assay plate was removed from the FLIPR^TETRA and incubated at 25° C. for seven (7) minutes. After the incubation period, the assay plate was placed back in the FLIPR^TETRA and the antagonist assay was initiated. Using EC80 potency values determined during the agonist assay, all pre-incubated sample compound wells were challenged with EC80 concentration of reference agonist after establishment of a fluorescence baseline. The antagonist assay was conducted using the same assay plate that was used for the agonist assay. The antagonist assay was conducted on a FLIPR^TETRA instrument where 9 vehicle controls and EC80 concentration of reference agonist were added to appropriate wells. The antagonist assay was a total of 180 seconds and was used to assess each compound's ability to inhibit each GPCR assayed. All assay plate data were subjected to appropriate baseline corrections. After baseline corrections were applied, maximum fluorescence values were exported and data processed to calculate percentage activation (relative to Emax reference agonist and vehicle control values), percentage inhibition (relative to EC80 and vehicle control values), and additional statistical values (i.e. Z′, percentage variation between replicate data values) to assess the quality of each plate. Where assay plate data were rejected, additional experiments were conducted. All dose response curves were generated using GraphPad Prism. The curves were fit by utilizing “Sigmoidal Dose Response (Variable Slope)” equation where the bottom parameter was fixed to “0.” Where appropriate, the top parameter was fixed to “100” to better predict potency values when a full curve was not generated by the concentrations assayed.
A general note: Calcium flux is commonly read through the fluorescence of an indicator in the cells.
For the molecule `C[C@@H](OC(=O)Nc1c(F)cnn1-c1ccc(-c2ccc(C3(C(=O)O)CC3)cc2Cl)cc1)c1ccccc1Cl` [Example 51, (R)-1-(2-Chloro-4′-{5-[1-(2-chloro-phenyl)-ethoxycarbonylamino]-4-fluoro-pyrazol-1-yl}-biphenyl-4-yl)-cyclopropanecarboxylic Acid], the IC50 was below 0.3 µM.
For the molecule `Cc1cc(C2(C(=O)O)CC2)ccc1-c1ccc(-n2ncc(F)c2NC(=O)O[C@H](C)c2ccccc2Cl)cc1` [Example 52, (R)-1-(4′-{5-[1-(2-Chloro-phenyl)-ethoxycarbonylamino]-4-fluoro-pyrazol-1-yl}-2-methyl-biphenyl-4-yl)-cyclopropanecarboxylic Acid], the IC50 was below 0.3 µM.
With `C[C@@H](OC(=O)Nc1c(F)cnn1-c1ccc(-c2ccc(C3(C(=O)O)CC3)cc2)cc1)c1ccccc1Cl` [Example 53, (R)-1-(4′-{5-[1-(2-Chloro-phenyl)-ethoxycarbonylamino]-4-fluoro-pyrazol-1-yl}-biphenyl-4-yl)-cyclopropanecarboxylic Acid] the figure was below 0.3 µM.
With `C[C@@H](OC(=O)Nc1c(C(F)(F)F)cnn1-c1ccc(-c2ccc(C3(C(=O)O)CC3)cc2)cc1)c1ccccc1` [Example 54, (R)-1-{4′-[5-(1-Phenyl-ethoxycarbonylamino)-4-trifluoromethyl-pyrazol-1-yl]-biphenyl-4-yl}-cyclopropanecarboxylic Acid] the figure was 0.3 to 1 µM; with `C[C@@H](OC(=O)Nc1c(C(F)(F)F)cnn1-c1ccc(-c2ccc(C3(C(=O)O)CC3)cc2F)cc1)c1ccccc1` [Example 55, (R)-1-{2-Fluoro-4′-[5-(1-phenyl-ethoxycarbonylamino)-4-trifluoromethyl-pyrazol-1-yl]-biphenyl-4-yl}-cyclopropanecarboxylic Acid], 0.3 to 1 µM.
For `C[C@@H](OC(=O)Nc1ccnn1-c1ccc(-c2ccc(C3(C(=O)O)CC3)cc2)nc1)c1ccccc1` [Example 56, (R)-1-(4-{5-[5-(1-Phenyl-ethoxycarbonylamino)-pyrazol-1-yl]-pyridin-2-yl}-phenyl)-cyclopropanecarboxylic Acid], the IC50 is below 0.3 µM.
As for “(R)-2-(4-{4-[(R)-1-(2-Chloro-phenyl)-ethoxycarbonylamino]-3-methyl-isoxazol-5-yl}-benzoylamino)-3-phenyl-propionic Acid [Example 20]”, the figure is below 0.3 µM; as for “(R)-3-(4-bromophenyl)-2-[[4-[1,5-dimethyl-4-((R)-1-phenylethoxycarbonyl-amino)pyrazol-3-yl]benzoyl]amino]propanoic acid [Example 12]”, above 50 µM.
